Measured values: patent US20010049373A1, “Materials and methods for killing nematodes and nematode eggs” (priority 2000, published 2001)

Assays:
Format in all cases: in vivo
[1] = test system: C. elegans; assay: C. elegans nematode activity assay, 2-fold dilutions from 140 μM, visual evaluation at Day 4 (Example 3); parameters: key: Dead: only stiff L1s (no movement); Dead (L4): worms are dead, but at a later larval stage; majority of worms are L1 (based on size); majority of worms are L2 (based on size); majority of worms are L3 (based on size); majority of worms are L4 (based on size); AD: majority of worms are adult; #AD: 5 adult worms or less; B!: sterile (0-25 progeny); B: low broodsize (25-100 progeny); ˜B: moderate broodsize (100-250 progeny); <: reduced broodsize (250-500 progeny); OK: no effect (˜1000+ progeny)
[2] = test system: Caenorhabditis elegans; assay: C. elegans L1 larvae dose-response, 5 day visual viability score (Examples 2 and 7); parameters: key: Dead: only stiff L1s (no movement); Dead (L4): worms are dead, but at a later larval stage; majority of worms are L1 (based on size); majority of worms are L2 (based on size); majority of worms are L3 (based on size); majority of worms are L4 (based on size); AD: majority of worms are adult; #AD: 5 adult worms or less; B!: sterile (0-25 progeny); B: low broodsize (25-100 progeny); ˜B: moderate broodsize (100-250 progeny); <: reduced broodsize (250-500 progeny); OK: no effect (˜1000+ progeny); settings: day 5, Table 3
Outline: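 Twenty L1 larvae per well in NGM with E. coli HB101 were exposed to six 3-fold dilutions from 70 μM to 0.3 μM, 1.4% DMSO final, at 20° C. Day-5 viability was scored visually under a dissecting microscope by developmental stage, adult count and brood size.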

[3] = test system: Caenorhabditis elegans; assay: HTS runs (initial and follow-up): mOD, % Run and visual score (Table 3); parameters: key to Initial HTS Run Visual Score / Follow-up HTS Run Visual Score: Dead: only stiff L1s (no movement); Dead (L4): worms are dead, but at a later larval stage; majority of worms are L1 (based on size); majority of worms are L2 (based on size); majority of worms are L3 (based on size); majority of worms are L4 (based on size); AD: majority of worms are adult; #AD: 5 adult worms or less; B!: sterile (0-25 progeny); B: low broodsize (25-100 progeny); ˜B: moderate broodsize (100-250 progeny); <: reduced broodsize (250-500 progeny); OK: no effect (˜1000+ progeny)
Experimental: The nematicidal activity of anthelmintic Compositions 48-118 were determined in accordance with the procedure outlined in Example 2.

## O=C(NCC1CCN(C(=O)NCCC(c2ccccc2)c2ccccc2)CC1)c1cc(F)c(F)cc1F [AKC 116]
[1]; 1.09 μM
  visual evaluation of viability: OK (no effect (˜1000+ progeny))
[1]; 2.2 μM
  visual evaluation of viability: OK (no effect (˜1000+ progeny))
[1]; 4.4 μM
  visual evaluation of viability: OK (no effect (˜1000+ progeny))
[1]; 8.8 μM
  visual evaluation of viability: B (low broodsize (25-100 progeny))
[1]; 17.5 μM
  visual evaluation of viability: B! (sterile (0-25 progeny))
[1]; 35 μM
  visual evaluation of viability: L3

## O=C(NCC1CCN(C(=O)NCCC(c2ccccc2)c2ccccc2)CC1)c1ccc(F)cc1F [AKC 117]
[1]; 1.09 μM
  visual evaluation of viability: OK (no effect (˜1000+ progeny))
[1]; 2.2 μM
  visual evaluation of viability: OK (no effect (˜1000+ progeny))
[1]; 4.4 μM
  visual evaluation of viability: < (reduced broodsize (250-500 progeny))
[1]; 8.8 μM
  visual evaluation of viability: B (low broodsize (25-100 progeny))
[1]; 17.5 μM
  visual evaluation of viability: B! (sterile (0-25 progeny))
[1]; 35 μM
  visual evaluation of viability: L3

## O=C(NCC1CCN(C(=O)NCCC(c2ccccc2)c2ccccc2)CC1)c1cc(F)cc(F)c1 [AKC 118]
[1]; 1.09 μM
  visual evaluation of viability: OK (no effect (˜1000+ progeny))
[1]; 2.2 μM
  visual evaluation of viability: OK (no effect (˜1000+ progeny))
[1]; 4.4 μM
  visual evaluation of viability: ˜B (moderate broodsize (100-250 progeny))
[1]; 8.8 μM
  visual evaluation of viability: B (low broodsize (25-100 progeny))
[1]; 17.5 μM
  visual evaluation of viability: L4/AD/B!
[1]; 35 μM
  visual evaluation of viability: L3
[1]; 140 μM
  visual evaluation of viability: L2

## NCc1ccc(-c2ccccc2)cc1 [AKC 138]
[1]; 1.09 μM
  visual evaluation of viability: OK (no effect (˜1000+ progeny))
[1]; 2.2 μM
  visual evaluation of viability: OK (no effect (˜1000+ progeny))
[1]; 4.4 μM
  visual evaluation of viability: OK (no effect (˜1000+ progeny))
[1]; 8.8 μM
  visual evaluation of viability: ˜B (moderate broodsize (100-250 progeny))
[1]; 17.5 μM
  visual evaluation of viability: L2
[1]; 35 μM
  visual evaluation of viability: L1
[1]; 70 μM
  visual evaluation of viability: L1
[1]; 140 μM
  visual evaluation of viability: L1

## Cc1ccc2c(Cl)cc(Cl)c(O)c2n1 [AKC 141]
[1]; 1.09 μM
  visual evaluation of viability: OK (no effect (˜1000+ progeny))
[1]; 2.2 μM
  visual evaluation of viability: OK (no effect (˜1000+ progeny))
[1]; 4.4 μM
  visual evaluation of viability: OK (no effect (˜1000+ progeny))
[1]; 8.8 μM
  visual evaluation of viability: OK (no effect (˜1000+ progeny))
[1]; 17.5 μM
  visual evaluation of viability: < (reduced broodsize (250-500 progeny))
[1]; 35 μM
  visual evaluation of viability: L1
[1]; 70 μM
  visual evaluation of viability: L1
[1]; 140 μM
  visual evaluation of viability: L1

## FC(F)(F)c1cccc(CNc2cc(Oc3ccc(-c4ccccc4)cc3)ncn2)c1 [AKC 382]
[2]; 0.3 μM (procedure of Example 2)
  5 Day Visual Score V6: OK (no effect (˜1000+ progeny))
[2]; 0.9 μM (procedure of Example 2)
  5 Day Visual Score V5: OK (no effect (˜1000+ progeny))
[2]; 2.6 μM (procedure of Example 2)
  5 Day Visual Score V4: OK (no effect (˜1000+ progeny))
[2]; 7.8 μM (procedure of Example 2)
  5 Day Visual Score V3: OK (no effect (˜1000+ progeny))
[2]; 70 μM (procedure of Example 2)
  5 Day Visual Score V1: Dead
[3]; Follow-up HTS Run
  Follow-up HTS Run % Run: 118%
  Follow-up HTS Run mOD: 159 mOD
[3]; Initial HTS Run
  Initial HTS Run % Run: 141%
  Initial HTS Run Visual Score: Dead
  Initial HTS Run mOD: 275 mOD
